The record followed here is patent US11071730B2, “Substituted 6-azabenzimidazole compounds” (Gilead Sciences, Inc., priority 2018, dated 2021).

As usually defined, the IC50 is the concentration that inhibits the measured activity by half.

The test deals with human HPK1 (MAP4K1) (Homo sapiens (Human), UniProt Q92918). The test can be described thus: HPK1 IC50 Assay (TR-FRET biochemical kinase assay, STK S1 peptide substrate). Particulars: recombinant human HPK1 kinase domain 0.15 nM, 10 μM ATP, 1 μM STK S1 peptide. Put shortly:
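Pre-activated recombinant kinase domain (insect cells; 0.15 nM) pre-incubated with compounds for 15 min, then 10 μM ATP and 1 μM STK S1 peptide added for 3 h at 25 °C in BES pH 7.0. Phosphorylation read by HTRF (665/620 nm). IC50 from four-parameter fits normalized to staurosporine/DMSO controls, geometric mean of repeats.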
(Time-resolved FRET reads energy transfer from a long-lived donor to a nearby acceptor.)

[1] abbreviates: geometric mean of multiple experiments.

Chain of human HPK1 (MAP4K1) (Q92918 17-274): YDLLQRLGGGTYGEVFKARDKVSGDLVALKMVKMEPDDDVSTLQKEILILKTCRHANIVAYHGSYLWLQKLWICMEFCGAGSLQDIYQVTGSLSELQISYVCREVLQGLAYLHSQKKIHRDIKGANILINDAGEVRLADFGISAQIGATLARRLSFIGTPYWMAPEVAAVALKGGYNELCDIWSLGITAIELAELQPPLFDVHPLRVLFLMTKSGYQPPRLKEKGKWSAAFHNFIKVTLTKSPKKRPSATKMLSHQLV

As to `CC(C)n1cnc2cc(-c3ccc4c(c3)N([C@H]3C[C@@H](N5CCC(C)(C)C5)C3)C(=O)C43CCN(C(=O)[C@H]4OCC[C@H]4C)CC3)nc(Nc3ccncc3F)c21` [Example 19B, 1-((1s,3R)-3-(3,3-dimethylpyrrolidin-1-yl)cyclobutyl)-6-(4-((3-fluoropyridin-4-yl)amino)-3-isopropyl-3H-imidazo[4,5-c]pyridin-6-yl)-1′-((2S,3R)-3-methyltetrahydrofuran-2-carbonyl)spiro[indoline-3,4′-piperidin]-2-one], under setting [1], the IC50 was determined as 0.1 nM.

As to `CC(C)n1cnc2cc(-c3ccc4c(c3)N([C@H]3C[C@@H](N5CC6CCC(C6)C5)C3)C(=O)C43CCN(C(=O)CO)CC3)nc(Nc3ccncc3F)c21` [Example 128], the IC50 (geometric mean) is 0.07 nM.

With `CC(C)n1cnc2cc(-c3ccc4c(c3)N([C@H]3C[C@@H](N5CCCC(C)(C)C5)C3)C(=O)C43CCN(C4COC4)CC3)nc(Nc3ccncc3F)c21` [Example 45], the 50% inhibitory concentration (IC50) under setting [1] amounted to 0.2 nM.

As for `CC(C)n1cnc2cc(-c3ccc4c(c3)N([C@H]3C[C@@H](N5CC[C@@H](C)C5)C3)C(=O)C4(C)C)nc(Nc3ccncc3F)c21` [Example 192], the IC50 (geometric mean) turned out to be 1.1 nM.

With `CC(C)n1cnc2cc(-c3ccc4c(c3)N([C@H]3C[C@@H](N5CC6CCC(C6)C5)C3)C(=O)C43CCN(C(=O)[C@@H](C)O)CC3)nc(Nc3ccncc3F)c21` [Example 126], the half-inhibitory concentration (IC50) (geometric mean) came out at 0.1 nM.

As for `CC(C)n1cnc2cc(-c3ccc4c(c3)N([C@H]3C[C@@H](N5CCC[C@@H](C)C5)C3)C(=O)C4(C)C)nc(Nc3ccncc3F)c21` [Example 191], the IC50 (geometric mean) was 0.9 nM.

In the case of `CC(=O)N1CCC2(CC1)C(=O)N(C1CC(N3CCCC4(CC4)C3)C1)c1cc(-c3cc4ncn(C(C)C)c4c(Nc4ccncc4F)n3)ccc12` (stereo not shown) [Example 177, 1-((1s,3s)-3-(5-azaspiro[2.5]octan-5-yl)cyclobutyl)-1′-acetyl-6-(4-((3-fluoropyridin-4-yl)amino)-3-isopropyl-3H-imidazo[4,5-c]pyridin-6-yl)spiro[indoline-3,4′-piperidin]-2-one], the IC50 (geometric mean) was found to be 0.3 nM.

As to `CC(C)n1cnc2cc(-c3ccc4c(c3)N([C@H]3C[C@@H](N5CCCCC5)C3)C(=O)C43CCN(C(=O)C4(C#N)CC4)CC3)nc(Nc3ccncc3F)c21` [Example 142], the 50% inhibitory concentration (IC50) (geometric mean) was 0.3 nM.

Turning to `CC(C)n1cnc2cc(-c3ccc4c(c3)N([C@H]3C[C@@H](N5C[C@H]6CC[C@H]6C5)C3)C(=O)C43CCN(C(=O)[C@@H](C)O)CC3)nc(Nc3ccncc3F)c21` [Example 113], the concentration for half-maximal inhibition (IC50) (geometric mean) is 0.07 nM.

`CCn1cnc2cc(-c3ccc4c(c3)N([C@H]3C[C@@H](N5CCCCC5)C3)C(=O)C43CCN(C(=O)C45CC(F)(C4)C5)CC3)nc(Nc3ccncc3F)c21` [Example 151]: the half-maximal inhibitory concentration (IC50) (geometric mean) was 0.3 nM.

`CC[C@@H](O)C(=O)N1CCC2(CC1)C(=O)N([C@H]1C[C@@H](N3CCC(C)(C)C3)C1)c1cc(-c3cc4ncn(C(C)C)c4c(Nc4ccncc4F)n3)ccc12` [Example 117]: under “geometric mean”, the half-maximal inhibitory concentration (IC50) is 0.2 nM.

`CC[C@H](O)C(=O)N1CCC2(CC1)C(=O)N([C@H]1C[C@@H](N3CCC(C)(C)C3)C1)c1cc(-c3cc4ncn(C(C)C)c4c(Nc4ccncc4F)n3)ccc12` [Example 116]: the IC50 (geometric mean) amounted to 0.4 nM.

As to `CC(C)n1cnc2cc(-c3ccc4c(c3)N([C@H]3C[C@@H](N5CCC(C)(C)C5)C3)C(=O)C43CCN(C(=O)c4cnco4)CC3)nc(Nc3ccncc3F)c21` [Example 158], the concentration for half-maximal inhibition (IC50) (geometric mean) came to 0.4 nM.

With `CC(C)n1cnc2cc(-c3ccc4c(c3)N([C@H]3C[C@@H](N5CCCC(C)(C)C5)C3)C(=O)C43CCN(C(=O)C4CCO4)CC3)nc(Nc3ccncc3F)c21` (stereo partly shown) [Example 108], under “geometric mean”, the IC50 came to 0.2 nM.

`COC1(C(=O)N2CCC3(CC2)C(=O)N([C@H]2C[C@@H](N4CCCCC4)C2)c2cc(-c4cc5ncn(C(C)C)c5c(Nc5ccncc5F)n4)ccc23)CCC1` [Example 107]: the concentration for half-maximal inhibition (IC50) (geometric mean) was 0.3 nM.

For `CC(C)n1cnc2cc(-c3ccc4c(c3)N([C@H]3C[C@@H](N5CCCCC5)C3)C(=O)C43CCN(C(=O)[C@@H](C)O)CC3)nc(Nc3ccnc(F)c3F)c21` [Example 102], the IC50 (geometric mean) is 0.1 nM.
